Each structure is given as a SMILES string.

What is called IC50 is the point on the concentration scale where inhibition reaches its midpoint. In general, EC50 refers to the concentration giving half of the maximal effect.

The nature of data set [1]: MV4-11 xenograft model, tolerance (body weight, clinical signs). The format is in vivo. As for the experimental part: For routine monitoring, all study animals were monitored not only tumor growth but also behavior such as mobility, food and water consumption (by cage side checking only), body weight (BW), eye/hair matting and any other abnormal effect. Any mortality and/or abnormal clinical signs would be recorded.
Body weights of all animals were measured twice weekly throughout the study.

The test system of the next data set is HL60. The data set can be described thus: Oncology cell growth assay, HL60. The format is cell-based, human. The conditions noted are these: HL60, Promyelocytic leukemia, gIC50, 72 hours. As to the method: (§1) Human cell lines were cultured in RPMI-1640 containing 10% fetal bovine serum, 1000 viable cells per well were plated in 384-well black flat bottom polystyrene plates (Greiner #781086) in 48 ˜I of culture media. All plates were placed at 5% CO2, 37° C. overnight. The following day one plate was harvested with CeliTiter-Glo (CTG, Promega #G7573) for a time equal to 0 (TO) measurement and compound (20 point titration from 14.7 uM to 7 pM) was added to the remaining plates. The final concentration of DMSO in all wells was 0.15%. Cells were incubated for 72 hours or the indicated time and each plate was developed with CeliTiterGlo reagent using a volume equivalent to the cell culture volume in the wells. Plates were shaken for approximately 2 minutes and chemiluminescent signal was read on the Analyst GT (Molecular Devices) or EnVision Plate Reader (Perkin Elmer).
(§2) Results are expressed as a percent of the TO and plotted against the compound concentration. The TO value was normalized to 100% and represents the number of cells at time of compound addition and the concentration response data were fit with a 4 parameter curve fit using XLfit software (model 205). […] The Ymin-TO value was determined by subtracting the TO value (100%) from the Ymin value (%) determined from the fit of the concentration response curve. […]

Another data set has as its system MOLT4. Kind of data set: Oncology cell growth assay, MOLT4. Particulars: MOLT4, acute lymphoid leukemia; gIC50, 72 hours. It is filed as cell-based, human. As for the experimental part:
as §1, §2

The next data set has as its system MM.1S. Kind of data set: Oncology cell growth assay, MM.1S. The conditions noted are these: Multiple myeloma, gIC50, 72 hours. It is filed as cell-based, human. As for the experimental part: as §1, §2
For the next data set, the system named is MV4-11. The data set can be described thus: Oncology cell growth assay, MV4-11. The format is cell-based, human. Particulars: MV4-11, AML (acute myeloid) leukemia, gIC50, 72 hours. As for the experimental part:
as §1, §2

Another data set has as its system AML2. Kind of data set: Oncology cell growth assay, AML2. The format is cell-based, human. Particulars: AML2, AML (acute myeloid leukemia), gIC50, 72 hours. As to the method: as §1, §2
In the next data set the test system is TEX. The data set can be described thus: Oncology cell growth assay, TEX. The format is cell-based, human. The conditions noted are these: AML (acute myeloid leukemia), gIC50, 72 hours. As to the method: as §1, §2
Another data set concerns SK-OV-3. The data set can be described thus: Oncology cell growth assay, SK-OV-3. It is filed as cell-based, human. Particulars: SK-OV-3, Ovarian cancer, gIC50, 72 hours. As to the method: as §1, §2
Data set [2] has as its system MV4-11 human AML xenograft. Kind of data set: MV4-11 subcutaneous human AML xenograft model, efficacy. The format is in vivo, NOD SCID mice. The conditions noted are these: PO. As to the method: • Species & Strain: NOD SCID mice • Age: 7-8 week • Total Number: 60 mice plus 40% spare • Sex: Female • Body Weight: 18 to 22 g Animal Maintenance
Groups and treatments started when the mean tumor volume reached 138 mm^3. Based on the tumor volume, mice were randomly assigned to respective groups using a computer-generated randomization procedure.
Each mouse was inoculated subcutaneously on the right flank with MV4-11 tumor cells ([…]) in 0.1 ml of IMDM without serum for tumor development. The treatment started when the mean tumor size reached approximately 138 mm^3. Mice were randomized into groups.
During the course of study, the tumor size was measured twice a week in two dimensions using a caliper, and the volume was expressed in mm^3 using the formula: TV=a×b2/2 where a and b were the long and short diameters of the tumor, respectively. The tumor size was then used for T/C and TGI (tumor growth inhibition) values, which were indicators of anti-tumor effectiveness. T/C was calculated with the formula [(Td−T0)/(Cd−C0)]×100%, TGI is calculated with the formula [1−(Td−T0)/(Cd−C0)]×100%. Td and Cd were the mean tumor volumes (or median tumor volumes) of the treated and control animals, and T0 and C0 were the mean tumor volumes of the treated and control animals at the start of the experiment.
(In general: In xenograft studies the graft and the host belong to different species.)

The test system of the next data set is RPMI-8226. The data set can be described thus: Oncology cell growth assay, RPMI-8226. It is filed as cell-based, human. The conditions noted are these: RPMI-8226, Multiple myeloma, gIC50, 72 hours. As to the method:
as §1, §2

A further data set addresses T1, BRD2-1: Domain 1 of BRD2 (Homo sapiens, UniProt P25440).
T1 construct: BRD2-1: Domain 1 of BRD2
Kind of data set: Bromodomain binding assay (Example 6), BRD2-1. As for the experimental part:
(§3) The binding of the compounds of the application to bromodomains BRD2, BRD3 and BRD4 was assessed using a time resolved fluorescent resonance energy transfer binding assay (Alpha Screen Technology), that measures the binding of an acetylated histone peptide to the bromodomain protein.
(§4) The bromodomain protein, histone peptide and a variable concentration of test compound were incubated together to reach thermodynamic equilibrium.

The nature of data set [3]: Liver microsome stability, human. The format is in vitro ADME. Particulars: pooled human liver microsomes (50 donors), 1 μM compound, 0.5 mg/ml microsomes, 37° C., read-out: % recovery Human Liver Microsomes (HLM) (30 min). As to the method:
(§5) Working stocks were initially diluted to a concentration of 40.0 μM in 0.1 M potassium phosphate buffer before addition to the reaction vials. Pooled mouse (CD-1, male) or human (50 donors) liver microsomes were utilized at a final concentration of 0.5 mg/ml. Duplicate wells were used for each time point (0 and 30 minutes). Reactions were carried out at 37° C. in a shaker, and the final concentration of DMSO was kept constant at 0.01%. The final volume for each reaction was 100 μL, which includes the addition of an NADPH-Regeneration solution (NRS) mix. This NRS mix was comprised of glucose 6-phosphate dehydrogenase (0.4 U/mL), NADP+ (1.3 mM), MgCl2 (3.3 mM), and glucose 6-phosphate (3.3 mM) in assay mixtures. Upon completion of the 30 minute time point, reactions were terminated by the addition of 1.5-volumes (150 μL) of ice-cold, acetonitrile with 0.5% formic acid and internal standard. Samples were then centrifuged at 4,000 rpm for 10 minutes to remove debris and precipitated protein. Approximately 150 μL of supernatant was subsequently transferred to a new 96 well microplate for LC/MS analysis.
(§6) Narrow-window mass extraction LC/MS analysis was performed for all samples using a Waters Xevo quadrupole time-of-flight (QTof) mass spectrometer and an ACQUITY UPLC system, to determine relative peak areas of parent compound.

A further data set has as its target T2, BRD2-1 (Homo sapiens, UniProt P25440).
T2 construct: BRD2-1: Domain 1 of BRD2
The data set can be described thus: BET Bromodomain AlphaScreen assay (Example 9), BRD2-1. It is filed as binding. As to the method:
(§7) The reader assay was a binding assay using the AlphaScreen technology fluorescence energy resonance transfer (FRET) assay. The biotinylated peptide binding to the reader domain of His-tagged protein is monitored by the singlet oxygen transfer from the Streptavidin-coated donor beads to the AlphaScreen Ni-chelate acceptor beads.
(§8) Reaction buffer: 50 mM Hepes, pH7.5, 100 mM NaCl, 0.05% CHAPS, 0.1% BSA, and 1% DMSO (Buffer and DMSO concentration may be different for different reader).
(§9) Biotin-peptide; sequences were different for different targets.
(§10) Reaction Procedure: • 1. Deliver 4× BRD in wells of reaction plate except No BRD control wells. Add buffer instead. • 2. Deliver compounds in 100% DMSO into the BRD mixture by Acoustic technology (Echo550; nanoliter range). Spin down and pre-incubation for 30 min. • 3. Deliver 4× Ligand. Spin and shake. • 4. Incubate for 30 min at room temperature with gentle shaking. • 5. Deliver 4× donor beads. Spin and shake. • 6. Deliver 4× acceptor beads. Spin and shake. Then gentle shaking in the dark for 60 min. • 7.
A general note: Bead proximity is the source of the signal in Alpha formats.

In another data set the target is T3, BRD4-FL (Homo sapiens, UniProt O60885).
T3 construct: BRD4-FL: Full length BRD4
The data set can be described thus: BET Bromodomain AlphaScreen assay (Example 9), BRD4-FL. It is filed as binding. As for the experimental part: as §7, §8, §9, §10

Data set [4] is described as follows: Liver microsome stability, mouse. The format is in vitro ADME, mouse (CD-1. Particulars: male, CD-1, mouse, pooled mouse liver microsomes, 1 μM compound, 0.5 mg/ml microsomes, 37° C., read-out: % recovery Mouse Liver Microsomes (MLM) (30 min). As to the method: as §5, §6
Another data set addresses T4, BRD3-1: Domain 1 of BRD3 (Homo sapiens, UniProt Q15059).
T4 construct: BRD3-1: Domain 1 of BRD3
The data set can be described thus: Bromodomain binding assay (Example 6), BRD3-1. As for the experimental part:
as §3, §4

For data set [5], the target named is T5, BRD4-FL: Full length BRD4 (Homo sapiens, UniProt O60885).
T5 construct: BRD4-FL: Full length BRD4
The data set can be described thus: Bromodomain binding assay (Example 6), BRD4-FL. As for the experimental part:
as §3, §4

The next data set concerns the target T6, BRD3-1 (Homo sapiens, UniProt Q15059).
T6 construct: BRD3-1: Domain 1 of BRD3
The data set can be described thus: BET Bromodomain AlphaScreen assay (Example 9), BRD3-1. It is filed as binding. As for the experimental part: as §7, §8, §9, §10

A further data set deals with GBM cell. The conditions noted are these: in vitro and in vivo; cited from earlier work.
In a further data set the test system is AR target genes. Particulars: AR-positive cells; cited from earlier work.
Another data set concerns ABC DLBCL. Particulars: combination with drugs targeting B-cell receptor signaling; cited from earlier work.
The subject of data set [6] is prostate cancer cell lines with activated AR signaling. Particulars: cited from earlier work.

T2 sequence (P25440 74-180 limits assumed): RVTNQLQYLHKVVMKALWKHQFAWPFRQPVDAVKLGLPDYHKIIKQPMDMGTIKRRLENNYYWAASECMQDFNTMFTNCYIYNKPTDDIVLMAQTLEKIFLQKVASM
T1 sequence (P25440 74-180 limits assumed): as above
T4 sequence (Q15059 34-140 limits assumed): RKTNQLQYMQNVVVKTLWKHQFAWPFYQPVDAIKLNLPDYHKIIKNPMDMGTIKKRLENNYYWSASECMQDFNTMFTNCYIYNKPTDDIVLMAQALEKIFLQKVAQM
T6 sequence (Q15059 34-140 limits assumed): as above

On to `COc1cc2c(cc1-c1c(C)noc1C)ncc1nc(C3CCOCC3)n([C@H](C)COC(F)F)c12.Cl` [2(g)·HCl], for which, in data set [1] (50 mg/kg PO, during the dosing period), the body weight loss was 9.1%. Also, the “body weight after dose suspension” value in data set [1] (50 mg/kg, after a two days dose suspension on Day 8 and 9) is “maintained or recovered”. Besides, the IC50 with HL60 stood at 51 ± 3 nM; in the data set on MOLT4 it was 1140 nM; with MM.1S it was 17 ± 4 nM; with MV4-11 it was 14 ± 7 nM; in the data set on AML2, 18 ± 2 nM; in the data set on TEX, 23 ± 2 nM. Also, the IC50 is 2180 ± 1440 nM in the data set on SK-OV-3 and 303 ± 6 nM in the data set with RPMI-8226. The antitumor activity result in data set [2] (30 mg/kg and 50 mg/kg) was “significant antitumor activity”; in [2] (low-dose 10 mg/kg, QD × 14), “moderate antitumor activity”.

Take `COc1cc2c(cc1-c1c(C)noc1C)ncc1nc(C3CC3)n([C@H](C)COC(F)F)c12.Cl` [2(l), 4-[2-cyclopropyl-1-[(1R)-2-(difluoromethoxy)-1-methyl-ethyl]-8-methoxy-imidazo[4,5-c]quinolin-7-yl]-3,5-dimethyl-isoxazole hydrochloride]: in data set [1] (all dose levels (30 and 50 mg/kg PO)), the tolerance entry is given as “tolerated well”. Besides, the IC50 on BRD2-1: Domain 1 of BRD2 is 42 nM; in the data set with HL60 (Homo sapiens, HL-60), 179 ± 10 nM; in the data set on MM.1S (Homo sapiens, MM1.S), 94 ± 14 nM; in the data set with MV4-11 (Homo sapiens), 156 ± 43 nM; with AML2 (Homo sapiens) it was 15 ± 1 nM; with TEX (Homo sapiens), 52 ± 73 nM. Moreover, the IC50 with SK-OV-3 (Homo sapiens) came to 360 ± 10 nM; in the data set on RPMI-8226 (Homo sapiens), 109 ± 32 nM; on BRD3-1: Domain 1 of BRD3, 21 nM; in data set [5], 33 nM. Further, the recovery at 30 min, 1 μM amounted to 43.6% in data set [3] and 3% in data set [4]. Also, the EC50 came to 42.2 nM on BRD2-1, 33.1 nM at BRD4-FL and 20.7 nM at BRD3-1. The antitumor activity entry in [2] (30 mg/kg and 50 mg/kg) is on record as “significant antitumor activity”.

Turning to `COc1cc2c(cc1-c1c(C)noc1C)ncc1[nH]c(=O)n([C@H](C)c3ccccn3)c12` [I-BET151], in the data set with GBM cell, the GBM cell proliferation entry was “reduced GBM cell proliferation in vitro and in vivo”.

`Cc1sc2c(c1C)C(c1ccc(Cl)cc1)=N[C@@H](CC(=O)OC(C)(C)C)c1nnc(C)n1-2` [JQ-1]: the “levels of transcription of AR target genes” value in the data set with AR target genes is given as “globally reduced the levels of transcription of AR target genes”. For the same compound, the drug-drug synergy result with ABC DLBCL is on record as “combined favorably with multiple drugs targeting B-cell receptor signaling”. Besides, the “apoptosis and cell cycle arrest” value in data set [6] was “sensitive to JQ1-induced apoptosis and cell cycle arrest”.

The values above are taken from patent US10259809B2, “Fluorinated imidazo[4,5-C]quinoline derivatives as inhibitors of bromodomain containing proteins” (Trillium Therapeutics Inc., priority 2015, dated 2019).
